Assay results taken from patent publication US7678787B2, “Pyrrolobenzodiazepine pyridine carboxamides and derivatives as follicle-stimulating hormone receptor antagonists” (Wyeth, priority 2005, dated 2010).
Read-outs that look alike come from different tables or passages of the source.

Tests used:
human FSH receptor [1] = target: T1, human FSH receptor (Homo sapiens, UniProt P23945); experiment: FSH receptor-dependent CRE-luciferase reporter gene assay (CHO FSH-R 6CRE-Luc cells); format: cell-based
T1 construct: host or cells: CHO-K1 (CHO FSH-R 6CRE-Luc, 1D7 cells)
T1 sequence (P23945 18-695): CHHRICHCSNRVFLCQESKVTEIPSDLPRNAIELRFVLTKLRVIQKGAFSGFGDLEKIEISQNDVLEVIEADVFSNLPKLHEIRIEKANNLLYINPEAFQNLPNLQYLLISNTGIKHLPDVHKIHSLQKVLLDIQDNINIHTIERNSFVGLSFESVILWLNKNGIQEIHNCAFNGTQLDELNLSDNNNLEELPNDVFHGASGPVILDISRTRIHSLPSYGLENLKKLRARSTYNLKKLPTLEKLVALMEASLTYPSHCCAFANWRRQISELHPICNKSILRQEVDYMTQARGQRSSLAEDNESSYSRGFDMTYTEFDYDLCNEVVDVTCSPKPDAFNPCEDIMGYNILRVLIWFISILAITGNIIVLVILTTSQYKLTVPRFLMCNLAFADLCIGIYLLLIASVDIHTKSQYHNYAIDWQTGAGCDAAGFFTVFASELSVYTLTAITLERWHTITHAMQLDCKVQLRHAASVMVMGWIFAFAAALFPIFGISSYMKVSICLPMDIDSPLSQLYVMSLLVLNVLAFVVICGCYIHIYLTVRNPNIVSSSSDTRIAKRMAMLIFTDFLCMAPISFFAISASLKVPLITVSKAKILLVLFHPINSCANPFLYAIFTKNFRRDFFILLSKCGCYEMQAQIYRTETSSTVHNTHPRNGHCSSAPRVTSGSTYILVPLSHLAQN

human FSH receptor [2] = target: T1, human FSH receptor; experiment: FSH receptor-dependent CRE-luciferase reporter gene assay (CHO FSH-R 6CRE-Luc cells); format: cell-based; conditions: dose-response format in presence of EC50 of purified human FSH; * n=3, ** n=2 averages
In short: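 CHO-K1 cells stably expressing the recombinant human FSH receptor and a luciferase reporter controlled by 6 cAMP response elements were seeded at 50,000 cells/100 μl/well in 96-well white opaque plates. Antagonists were tested in dose-response against the EC50 of purified human FSH for 4 hours at 37° C, and luciferase chemiluminescence was read with a LucScreen kit.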

hFSH-R = target: T2, hFSH-R (Homo sapiens, UniProt P23945); experiment: cAMP accumulation (RIA) in CHO-3D2 cells (hFSH-R), hFSH-induced; format: cell-based; conditions: inhibition of cAMP accumulation induced by hFSH at EC20, CHO-3D2 cells
T2 construct: expressed in transfected cells; host or cells: CHO-3D2 cells (CHO-K1 parental line)
T2 sequence (P23945 18-695): T1 sequence (P23945 18-695)

[3] = 2-dose format, test concentration in parentheses = 30 μM, percent inhibition of response to EC50 of FSH, read-out: CRE % inhibition

inhibition at 30 µM (human FSH receptor [1]; [3]) [%]	melting point	SMILES	further results
–	159 to 161 °C	O=C(NCc1cccnc1)c1ccc2n1Cc1ccccc1N(C(=O)c1ccc(-c3ccccn3)cc1)C2 [Example 107]	IC50 (human FSH receptor [2]): 3120 nM; IC50 (hFSH-R): 200 nM
–	120 to 125 °C	O=C(NCc1cccnc1)c1ccc2n1Cc1ccccc1N(C(=O)c1ccc(-c3cccnc3)cc1)C2 [Example 108]	IC50 (human FSH receptor [2]): 9530 nM; IC50 (hFSH-R): 1800 nM
–	150 to 151 °C	Cc1cccnc1-c1ccc(C(=O)N2Cc3ccc(C(=O)NCc4cccnc4)n3Cc3ccccc32)cc1 [Example 109]	IC50 (human FSH receptor [2]): 2920 nM; IC50 (hFSH-R): 300 nM
–	107 °C	O=C(NCc1cccnc1)c1ccc2n1Cc1ccccc1N(C(=O)c1ccc(-n3cccn3)cc1)C2 [Example 112]	IC50 (human FSH receptor [2]): 7990 nM; IC50 (hFSH-R): 1300 nM
–	196 to 197 °C (dec.)	O=C(NCc1cccnc1)c1ccc2n1Cc1ccccc1N(C(=O)c1ccc(N3CCCCC3)cc1)C2 [Example 113]	IC50 (human FSH receptor [2]): 8840 nM; IC50 (hFSH-R): 800 nM
34	–	O=C(NCc1cccnc1)c1ccc2n1Cc1ccccc1N(C(=O)c1cccs1)C2 [Example 115]	–
24	–	O=C(NCc1cccnc1)c1ccc2n1Cc1ccccc1N(C(=O)c1ccc(Cl)nc1)C2 [Example 117]	–
41	–	O=C(NCc1cccnc1)c1ccc2n1Cc1ccccc1N(C(=O)c1cnccn1)C2 [Example 123]	–
7	–	O=C(NCc1cccnc1)c1ccc2n1Cc1ccccc1N(C(=O)c1cccnc1)C2 [Example 124]	–
9	–	O=C(NCc1cccnc1)c1ccc2n1Cc1ccccc1N(C(=O)c1ccc(NCCCc3ccccc3)nc1)C2 [Example 127]	–
16	–	COc1cccc(CNc2ccc(C(=O)N3Cc4ccc(C(=O)NCc5cccnc5)n4Cc4ccccc43)cn2)c1 [Example 129]	–
26	–	CN(Cc1ccccc1)c1ccc(C(=O)N2Cc3ccc(C(=O)NCc4cccnc4)n3Cc3ccccc32)cn1 [Example 130]	–
26	–	O=C(NCc1cccnc1)c1ccc2n1Cc1ccccc1N(C(=O)c1ccc(NCCO)nc1)C2 [Example 132]	–
4	–	O=C(NCc1cccnc1)c1ccc2n1Cc1ccccc1N(C(=O)c1ccc(OCc3ccccc3)nc1)C2 [Example 134]	–
34	85 °C	CC(C)(C)c1ccc(OCC(=O)N2Cc3ccc(C(=O)NCc4cccnc4)n3Cc3ccccc32)cc1 [Example 135]	–
41	–	O=C(NCc1cccnc1)c1ccc2n1Cc1ccccc1N(C(=O)COc1ccccc1)C2 [Example 136]	–
16	83 °C	CC(Oc1ccccc1)C(=O)N1Cc2ccc(C(=O)NCc3cccnc3)n2Cc2ccccc21 (stereo not shown) [Example 137]	–
32	–	O=C(NCc1cccnc1)c1ccc2n1Cc1ccccc1N(C(=O)CSc1ccc(Br)cc1)C2 [Example 141]	–
48	153 to 155 °C	O=C(NCc1cccnc1)c1ccc2n1Cc1ccccc1N(C(=O)Cc1ccc(-c3ccccc3)cc1)C2 [Example 143]	–
8	–	O=C(NCc1cccnc1)c1ccc2n1Cc1ccccc1N(C(=O)C1CCCCC1)C2 [Example 149, 10-(CYCLOHEXYLCARBONYL)-N-(PYRIDIN-3-YLMETHYL)-10,11-DIHYDRO-5H-PYRROLO[2,1-C][1,4] BENZODIAZEPINE-3-CARBOXAMIDE]	–
20	–	CC(C)C(=O)N1Cc2ccc(C(=O)NCc3cccnc3)n2Cc2ccccc21 [Example 150]	–

Continued, compound first:

SMILES	inhibition at 30 µM (human FSH receptor [1]; [3]) [%]	melting point	further results
Cc1cc(C(=O)N2Cc3ccc(C(=O)NCc4cccnc4)n3Cc3ccccc32)ccc1-c1c(C)cccc1C [Example 10]	25	–	–
Cc1cc(C(=O)N2Cc3ccc(C(=O)NCc4cccnc4)n3Cc3ccccc32)ccc1-c1cccc(Cl)c1 [Example 23]	36	–	–
Cc1cc(C(=O)N2Cc3ccc(C(=O)NCc4cccnc4)n3Cc3ccccc32)ccc1-c1ccc(Cl)c(Cl)c1 [Example 25]	11	–	–
O=C(c1ccccc1)c1ccccc1-c1ccc(C(=O)N2Cc3ccc(C(=O)NCc4cccnc4)n3Cc3ccccc32)cc1 [Example 60]	29	198 to 199 °C	–
COC(=O)c1ccccc1-c1ccc(C(=O)N2Cc3ccc(C(=O)NCc4cccnc4)n3Cc3ccccc32)cc1 [Example 63]	–	179.5 to 180.5 °C	IC50 (human FSH receptor [2]): 1180 nM; IC50 (hFSH-R): 380 nM
COc1cccc(-c2ccc(C(=O)N3Cc4ccc(C(=O)NCc5cccnc5)n4Cc4ccccc43)cc2C)c1 [Example 70]	–	176 to 177 °C	IC50 (human FSH receptor [2]): 5600 nM; IC50 (hFSH-R): 2400 nM
COc1ccccc1-c1ccc(S(=O)(=O)N2Cc3ccc(C(=O)NCc4cccnc4)n3Cc3ccccc32)cc1 [Example 71]	17.3	–	–
O=C(NCc1cccnc1)c1ccc2n1Cc1ccccc1N(S(=O)(=O)c1ccc(-c3ccccc3Cl)cc1)C2 [Example 72]	6.61	–	–
Cc1cc(C(=O)N2Cc3ccc(C(=O)NCc4cccnc4)n3Cc3ccccc32)ccc1I [Example 74]	–	176 to 177 °C	IC50 (human FSH receptor [2]): 10500 nM; IC50 (hFSH-R): 3100 nM
O=C(c1ccccc1)c1ccc(C(=O)N2Cc3ccc(C(=O)NCc4cccnc4)n3Cc3ccccc32)cc1 [Example 75]	–	211 to 213 °C (dec.)	IC50 (human FSH receptor [2]): > 30000 nM; IC50 (hFSH-R): 21000 nM
O=C(NCc1cccnc1)c1ccc2n1Cc1ccccc1N(C(=O)c1ccccc1C(F)(F)F)C2 [Example 82]	2.4	157 to 158 °C	–
O=C(NCc1cccnc1)c1ccc2n1Cc1ccccc1N(C(=O)c1c(F)cccc1F)C2 [Example 86]	40	103 to 109 °C	–
COC(=O)c1ccc(C(=O)N2Cc3ccc(C(=O)NCc4cccnc4)n3Cc3ccccc32)cc1 [Example 87, METHYL 4-{[3-{[(PYRIDIN-3-YLMETHYL)AMINO]CARBONYL}-5H-PYRROLO[2,1-C][1,4]BENZODIAZEPIN-10(11H)-YL]CARBONYL}BENZOATE]	38	170 to 172 °C	–
N#Cc1ccc(C(=O)N2Cc3ccc(C(=O)NCc4cccnc4)n3Cc3ccccc32)cc1 [Example 90]	13	–	–
O=C(NCc1cccnc1)c1ccc2n1Cc1ccccc1N(C(=O)c1ccc(Cl)cc1)C2 [Example 91]	37	–	–
Cc1ccccc1C(=O)N1Cc2ccc(C(=O)NCc3cccnc3)n2Cc2ccccc21 [Example 94]	17	–	–
O=C(NCc1cccnc1)c1ccc2n1Cc1ccccc1N(C(=O)c1cc(F)cc(F)c1)C2 [Example 95]	45	138 to 140 °C	–
O=C(NCc1cccnc1)c1ccc2n1Cc1ccccc1N(C(=O)c1ccccc1F)C2 [Example 97]	18	142 to 143 °C	–
O=C(NCc1cccnc1)c1ccc2n1Cc1ccccc1N(C(=O)c1ccc([N+](=O)[O-])cc1)C2 [Example 99]	35	–	–
O=C(NCc1cccnc1)c1ccc2n1Cc1ccccc1N(C(=O)c1ccc(-c3ncccn3)cc1)C2 [Example 105]	–	234 to 236 °C	IC50 (human FSH receptor [2]): 2480 nM; IC50 (hFSH-R): 200 nM
O=C(NCc1cccnc1)c1ccc2n1Cc1ccccc1N(C(=O)c1ccc(-c3cncnc3)cc1)C2 [Example 106]	21	172 to 175 °C	–
O=C(NCc1cccnc1)c1ccc2n1Cc1ccccc1N(C(=O)c1ccc(N3CCCCC3)nc1)C2 [Example 125]	–	–	inhibition at 30 µM (human FSH receptor [1]; read-out: CRE % inhibition (μM)): 31%
